Results on six compounds are retold here after patent US5563292A, “Lipoxygenase inhibitors” (Schering Corporation, priority 1990, dated 1996).

Where two headings read alike, the source gives them in different places.

Assay [1] deals with T1, 5-Lipoxygenase (5-LO) (Homo sapiens, UniProt P09917).
T1 construct: Human polymorphonuclear leukocytes (neutrophils) were obtained from normal healthy volunteers by venipuncture; endogenous in cells; host or cells: human peripheral blood neutrophils (polymorphonuclear leukocytes) from healthy volunteers, intact cells
T1 sequence (P09917 1-674): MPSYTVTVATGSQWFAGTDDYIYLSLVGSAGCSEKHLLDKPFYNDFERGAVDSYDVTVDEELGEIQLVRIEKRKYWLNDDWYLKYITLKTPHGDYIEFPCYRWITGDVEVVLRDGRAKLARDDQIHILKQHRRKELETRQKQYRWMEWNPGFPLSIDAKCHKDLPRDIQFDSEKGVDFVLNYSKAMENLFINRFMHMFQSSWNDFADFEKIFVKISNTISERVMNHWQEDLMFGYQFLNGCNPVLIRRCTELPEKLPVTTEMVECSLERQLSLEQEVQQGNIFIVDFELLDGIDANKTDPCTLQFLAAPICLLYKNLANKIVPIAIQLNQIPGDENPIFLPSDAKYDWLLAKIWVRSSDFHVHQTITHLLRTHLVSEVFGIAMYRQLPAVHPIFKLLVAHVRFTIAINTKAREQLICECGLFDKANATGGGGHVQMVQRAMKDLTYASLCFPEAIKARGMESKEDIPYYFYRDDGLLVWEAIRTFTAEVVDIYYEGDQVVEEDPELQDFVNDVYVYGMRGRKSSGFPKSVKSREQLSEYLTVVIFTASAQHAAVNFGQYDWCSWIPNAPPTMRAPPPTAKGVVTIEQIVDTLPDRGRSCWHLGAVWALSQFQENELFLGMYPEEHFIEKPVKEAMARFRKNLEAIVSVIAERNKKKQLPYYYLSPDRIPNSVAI
The assay is described as follows: 5-Lipoxygenase Assay with Human Neutrophils (A23187-stimulated 5-HETE and LTB4 production). The assay is classed as cell-based. The note with it: [14C] arachidonic acid 9 μM, A23187 1 μM. As for the experimental part:
5-Lipoxygenase Assay with Human Neutrophils
Human polymorphonuclear leukocytes (neutrophils) were obtained from normal healthy volunteers by venipuncture and collected with heparin anticoagulant. Neutrophils were isolated by Dextran/Ficol sedimentation as described (Billah et al., J. Biol. Chem. 260, 6899-6906 (1985)). In brief, 30 ml of blood was mixed with 5 ml of dextran (Sigma) solution and kept at 37 C for 30 min. The upper white cell-rich layer was removed and 10 ml was layered on 9 ml of Ficol-Pague solution (Pharmacia) and centrifuged at 280×g for 10 min. at 5° C. The supernatant was removed and the neutrophil pellet was resuspended in HEPES buffer containing 25 mM N-2-hydroxyethylpiperazine-N^1 -2-ethanesulfonic acid (HEPES), 125 mM NaCl, 2.5 mM KCl, 0.7 mM MgCl2, […] 10 mM glucose at pH 7.4. The red cells in the suspension were lysed by hypotonic shock. The neutrophils were washed by centrifugation in HEPES buffer two times and finally resuspended at a concentration of 20×10^6 cells/ml in the presence of 1 mM CaCl2.
Neutrophils (0.2 ml of suspension) were preincubated with dimethylsulfonxide (DMSO) vehicle with or without test compound (1 μl) for 4 minutes then incubated for 5 minutes with [^14 C] arachidonic acid (Amersham, 59 Ci/mole) at a 9 μM final concentration, and the calcium ionophore A23187 (Calbiochem) at a 1 μM final concentration. These stimulants were added in 10 μl of water:ethanol (9:1). The reaction was stopped by addition of methanol (0.4 ml), and cellular debris was removed by centrifugation. Aliquots (100 ul) of the incubations were run on a Waters two pump HPLC system fitted with a DuPont Zorbax ODS, 5μ, […] Reliance Cartridge column and C18 "Guard Pak". The column was initially eluted at 2 ml/min with 80% of the mixture water:methanol:acetic acid (46:54:0.08) containing 1 mM EDTA adjusted to pH 6.0 with ammonium hydroxide (Pump A) and 20% methanol (Pump B). At 10 minutes, a linear gradient to reach 100% methanol (Pump B) at 27 minutes was established. Between 27 and 28 minutes, methanol was exchanged for the initial eluting solvent and by 35 minutes the column had been reequilibrated for the next sample. The effluent was analyzed by a continuous flow radioactivity monitor (model ROMONA-D) interfaced with a Hewlett Packard Lab Automation System for quantitation of radioactive products. These were predominantly leukotriene B4 (LTB4) which eluted at 7 minutes, and 5-hydroxyeicosatetraenoic acid (5-HETE) which eluted at 20 minutes.

Assay [2] has as its system mouse ear. Description: Arachidonic Acid Mouse Ear Test. The assay is classed as in vivo. The settings on record: topical, 30 minutes prior to arachidonic acid, biopsy 1 hour after challenge. As to the method: Charles River, female, CD, (SD) BR mice, 6 weeks old, are caged 8/group and allowed to acclimate 1-3 weeks prior to use.
Arachidonic acid (AA) is dissolved in reagent grade acetone (2 mg/0.01 ml) and stored at -20° C. for a maximum of 1 week prior to use. Inflammatory reactions are induced by applying 10 μl of AA to both surfaces of one ear ([…] total).
Test drugs are dissolved in either reagent grade acetone or aqueous ethanol (only if insoluble in acetone) at the same doses selected by Opas et al., Fed. Proc. 43, Abstract 2983, p. 1927 (1984) and Young et al., J. Invest. Dermatol. 82, pp. 367-371 (1984). These doses are employed to ensure maximum responses and to overcome any difference in topical absorption which could occur with any drug applied in an aqueous ethanol vehicle. The test drug is applied 30 minutes prior to challenge with AA.
The severity of the inflammation is measured as a function of increased ear weight. A 6 mm punch biopsy is removed 1 hour after AA challenge and weighed to the nearest 0.1 mg. Mean±standard error and all possible comparisons are made via Duncan's Multiple Range Statistic.

Where [3] appears, read: read-out: 5-LO inhibition, % inhibition 5-HETE.
Where [4] appears, read: read-out: 5-LO inhibition, % inhibition LTB4.

The inhibition is the percentage by which the read-out fell short of the control. Regarding `COc1cc(OC)cc(C(C)(C)CC(C)(CCCCO)c2cc(OC)cc(OC)c2)c1` (stereo not drawn) [Formula 41, 5,7-dimethyl-5,7-bis(3,5-dimethoxyphenyl)-1-octanol], the inhibition at 15 µM in assay [1] (setting [3]) was 99%; in assay [1] (setting [4]) it was 97%. For the same compound, in assay [2] (dose 1.0 mg/ear), the “Mouse ear assay, % inhibition (ear weight)” value is 72%.
For `COc1cc(OC)cc(C(C)(C)CC(C)(CCCC(=O)O)c2cc(OC)cc(OC)c2)c1` (stereo not drawn) [Formula 45], the inhibition at 15 µM in assay [1] (setting [3]) was 33%; in assay [1] (setting [4]), 14%.
In assay [1] (dose 5 μM), `COc1cc(OC)cc(C(C)(C)CC(C)(CCCC(=O)NO)c2cc(OC)cc(OC)c2)c1` (stereo not drawn) [Formula 46] showed an inhibition at 5 µM of 63%. Moreover, the figures for the inhibition at 15 µM in assay [1] (setting [3]) and in assay [1] (setting [4]) were 99% and 96%, respectively.
For `COc1cc(OC)cc(C(C)(C)CC(C)(CCCCOC(C)=O)c2cc(OC)cc(OC)c2)c1` (stereo not drawn) [Formula 42], the inhibition at 15 µM in assay [1] (setting [3]) is 95%; in assay [1] (setting [4]), 100%. Also, in assay [2] (dose 0.5 mg/ear), the “Mouse ear assay, % inhibition (ear weight)” value is 40%.
In the case of `COc1cc(OC)cc(C(C)(C)CC(C)(CCCC=O)c2cc(OC)cc(OC)c2)c1` (stereo not drawn) [Formula 43], the inhibition at 15 µM in assay [1] (setting [3]) and in assay [1] (setting [4]) was 97% throughout.
`COC(=O)CCCC(C)(CC(C)(C)c1cc(OC)cc(OC)c1)c1cc(OC)cc(OC)c1` (stereo not drawn) [Formula 44]: the inhibition at 15 µM stood at 98% in assay [1] (setting [3]) and 100% in assay [1] (setting [4]).
